Laboratory results published in patent US11673894B2, “Imidazopyrimidines and triazolopyrimidines as A2A / A2B inhibitors” (Incyte Corporation, priority 2018, dated 2023).

Tests used:
Adenosine A2A receptor = Adenosine A2A receptor (Homo sapiens (Human), UniProt P29274); test: A2A Tag-lite HTRF Assay; conditions: Tag-lite Adenosine A2A labeled cells; A2A Receptor Red antagonist fluorescent ligand 12.5 nM; one-site competitive binding model; read-out: A2A_Ki
Source text: The final concentration of DMSO was 1%.

[1] = target: human adenosine A2B receptor (Homo sapiens (Human), UniProt P29275); test: Adenosine A2B Receptor Cyclic AMP GS Assay; type: cell-based; conditions: HEK-293 cells expressing human A2B receptor; agonist NECA at 12 nM; cAMP accumulation (FRET); read-out: A2B_cAMP_EC50
Procedure: Stably transfected HEK-293 cells expressing the human adenosine A2B receptor (Perkin Elmer) were maintained in MEM culture medium with 10% FBS and 100 μg/ml Geneticin (Life Technologies). 18 to 24 hours prior to assay, geneticin was removed from culture. The cisbio cAMP-GS Dynamic kit utilizing the FRET (Fluorescence Resonance Energy Transfer) technology was used to measure cAMP accumulation in the cells. Compounds of the present disclosure at an appropriate concentration were mixed with 10000 cells/well in white 96 well half area plates (Perkin Elmer) for 30 min at RT gently shaking. Agonist, NECA (R&D Technologies) at 12 nM was added to each well for 60 min at RT gently shaking. Detection reagents, d2-labeled cAMP (acceptor) and anti-cAMP cryptate (donor) were added to each well for 60 min at RT gently shaking. Plates were read on Pherastar (BMG Labtech), fluorescence ratio 665/620 was calculated and EC50 determination was performed by fitting the curve of percent of control versus the log of the compound concentration using GraphPad Prism.

Chain of human adenosine A2B receptor (P29275 whole entry): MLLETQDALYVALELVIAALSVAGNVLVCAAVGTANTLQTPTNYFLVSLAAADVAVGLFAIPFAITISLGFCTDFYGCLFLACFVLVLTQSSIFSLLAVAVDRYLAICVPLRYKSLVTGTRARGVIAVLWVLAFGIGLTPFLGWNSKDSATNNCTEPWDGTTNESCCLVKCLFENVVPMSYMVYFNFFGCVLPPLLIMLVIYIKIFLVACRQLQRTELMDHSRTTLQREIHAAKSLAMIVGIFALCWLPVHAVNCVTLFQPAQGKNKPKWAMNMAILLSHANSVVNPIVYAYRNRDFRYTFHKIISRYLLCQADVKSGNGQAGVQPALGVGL
Chain of Adenosine A2A receptor (P29274 whole entry): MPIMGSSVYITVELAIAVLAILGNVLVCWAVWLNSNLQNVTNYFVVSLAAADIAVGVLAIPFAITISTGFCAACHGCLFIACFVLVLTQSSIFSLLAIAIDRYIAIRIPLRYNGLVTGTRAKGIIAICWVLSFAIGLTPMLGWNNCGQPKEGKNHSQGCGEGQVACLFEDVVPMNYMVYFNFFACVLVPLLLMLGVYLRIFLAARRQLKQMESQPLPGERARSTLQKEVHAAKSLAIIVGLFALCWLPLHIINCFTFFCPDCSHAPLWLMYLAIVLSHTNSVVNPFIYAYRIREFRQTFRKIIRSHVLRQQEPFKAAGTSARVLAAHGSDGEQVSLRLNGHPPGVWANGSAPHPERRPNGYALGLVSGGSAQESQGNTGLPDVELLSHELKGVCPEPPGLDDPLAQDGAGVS

Row | Ki (Adenosine A2A receptor) | EC50 [1] | Structure (SMILES)
1 | 10 to 100 nM | > 1000 nM | CCNC(=O)c1cn2c(N)nc(-c3cccc(C#N)c3)c(C3CC3)c2n1 [Example 40, 5-Amino-7-(3-cyanophenyl)-8-cyclopropyl-N-ethylimidazo[1,2-c]pyrimidine-2-carboxamide]
2 | < 10 nM | 100 to 1000 nM | CCNC(=O)c1cn2c(N)nc(-c3cccc(C#N)c3)c(-c3cnn4ccccc34)c2n1 [Example 33, 5-Amino-7-(3-cyanophenyl)-N-ethyl-8-(pyrazolo[1,5-a]pyridin-3-yl)imidazo[1,2-c]pyrimidine-2-carboxamide]
3 | < 10 nM | < 10 nM | N#Cc1cccc(-c2nc(N)n3nc(Cc4ccccn4)nc3c2-c2ncncc2F)c1 [Example 46, 3-(5-Amino-8-(5-fluoropyrimidin-4-yl)-2-(pyridin-2-ylmethyl)-[1,2,4]triazolo[1,5-c]pyrimidin-7-yl)benzonitrile]
4 | < 10 nM | 100 to 1000 nM | CCNC(=O)c1nc2c(-c3ccnc(OC)c3)c(-c3cccc(C#N)c3)nc(N)n2c1-c1ccccn1 [Example 19, 5-Amino-7-(3-cyanophenyl)-N-ethyl-8-(2-methoxypyridin-4-yl)-3-(pyridin-2-yl)imidazo[1,2-c]pyrimidine-2-carboxamide]
5 | < 10 nM | 10 to 100 nM | CCNC(=O)c1cn2c(N)nc(-c3cccc(C#N)c3)c(-c3ccncc3C#N)c2n1 [Example 31, 5-Amino-7-(3-cyanophenyl)-N-ethyl-8-(3-cyanopyridin-4-yl)imidazo[1,2-c]pyrimidine-2-carboxamide]
6 | 10 to 100 nM | > 1000 nM | CCNC(=O)c1cn2c(NCC)nc(-c3ccccc3)c(-c3cc(C)nc(C)c3)c2n1 [Example 22, 8-(2,6-Dimethylpyridin-4-yl)-N-ethyl-5-(ethylamino)-7-phenylimidazo[1,2-c]pyrimidine-2-carboxamide]
7 | < 10 nM | 100 to 1000 nM | CCNC(=O)c1cn2c(N)nc(-c3cccc(C#N)c3)c(-c3ccc(C(N)=O)cc3)c2n1 [Example 32, 5-Amino-8-(4-carbamoylphenyl)-7-(3-cyanophenyl)-N-ethylimidazo[1,2-c]pyrimidine-2-carboxamide]
8 | < 10 nM | < 10 nM | CCNC(=O)c1cn2c(N)nc(-c3cccc(C#N)c3)c(-c3ccncc3F)c2n1 [Example 28, 5-Amino-7-(3-cyanophenyl)-N-ethyl-8-(3-fluoropyridin-4-yl)imidazo[1,2-c]pyrimidine-2-carboxamide]

Continued, compound first:

Row | Structure (SMILES) | Ki (Adenosine A2A receptor) | EC50 [1]
9 | CCn1nccc1-c1c(-c2cccc(C#N)c2)nc(N)n2nc(Cc3noc4ccccc34)nc12 [Example 55, 3-(5-Amino-2-(benzo[d]isoxazol-3-ylmethyl)-8-(1-ethyl-1H-pyrazol-5-yl)-[1,2,4]triazolo[1,5-c]pyrimidin-7-yl)benzonitrile] | < 10 nM | < 10 nM
10 | CN1CC(=O)N(Cc2cccc(F)c2Cc2nc3c(-c4ccncn4)c(-c4cccc(C#N)c4)nc(N)n3n2)C1=O [Example 87, 3-(5-Amino-2-(2-fluoro-6-((3-methyl-2,5-dioxoimidazolidin-1-yl)methyl)benzyl)-8-(pyrimidin-4-yl)-[1,2,4]triazolo[1,5-c]pyrimidin-7-yl)benzonitrile] | < 10 nM | < 10 nM
11 | CCNC(=O)c1cn2c(N)nc(-c3ccccc3)c(C3CCN(C(N)=O)CC3)c2n1 [Example 16, 5-Amino-8-(1-carbamoylpiperidin-4-yl)-N-ethyl-7-phenylimidazo[1,2-c]pyrimidine-2-carboxamide] | < 10 nM | 100 to 1000 nM
12 | CCc1ncoc1-c1c(-c2cccc(C#N)c2)nc(N)n2nc(Cc3ccccn3)nc12 [Example 82, 3-(5-Amino-8-(4-ethyloxazol-5-yl)-2-(pyridin-2-ylmethyl)-[1,2,4]triazolo[1,5-c]pyrimidin-7-yl)benzonitrile] | < 10 nM | < 10 nM
13 | N#Cc1cccc(-c2nc(N)n3nc(CN4CC(O)C4)nc3c2-c2ccncn2)c1 [Example 57, 3-(5-Amino-2-((3-hydroxyazetidin-1-yl)methyl)-8-(pyrimidin-4-yl)-[1,2,4]triazolo[1,5-c]pyrimidin-7-yl)benzonitrile] | < 10 nM | 100 to 1000 nM
14 | Cc1cccnc1CNc1nc2c(-c3ccncn3)c(-c3cccc(C#N)c3)nc(N)n2n1 [Example 97, 3-(5-Amino-2-(((3-methylpyridin-2-yl)methyl)amino)-8-(pyrimidin-4-yl)-[1,2,4]triazolo[1,5-c]pyrimidin-7-yl)benzonitrile] | < 10 nM | < 10 nM
15 | N#Cc1cccc(-c2nc(N)n3nc(Cc4ccccn4)nc3c2-c2cccc3ncccc23)c1 [Example 44, 3-(5-Amino-2-(pyridin-2-ylmethyl)-8-(quinolin-5-yl)-[1,2,4]triazolo[1,5-c]pyrimidin-7-yl)benzonitrile] | < 10 nM | 10 to 100 nM
16 | N#Cc1cccc(-c2nc(N)n3nc(Cc4ccccn4)nc3c2-c2cnn3ncccc23)c1 [Example 60, 3-(5-Amino-8-(pyrazolo[1,5-b]pyridazin-3-yl)-2-(pyridin-2-ylmethyl)-[1,2,4]triazolo[1,5-c]pyrimidin-7-yl)benzonitrile] | < 10 nM | 10 to 100 nM
17 | N#Cc1cccc(-c2nc(N)n3nc(NC(C#N)c4ccccc4)nc3c2-c2ccncn2)c1 (stereo not shown) [Example 69, 3-(5-Amino-2-((cyano(phenyl)methyl)amino)-8-(pyrimidin-4-yl)-[1,2,4]triazolo[1,5-c]pyrimidin-7-yl)benzonitrile] | < 10 nM | 10 to 100 nM
18 | N#Cc1cccc(-c2nc(N)n3nc(Cc4ncccc4F)nc3c2-c2ccncn2)c1 [Example 88, 3-(5-Amino-2-((3-fluoropyridin-2-yl)methyl)-8-(pyrimidin-4-yl)-[1,2,4]triazolo[1,5-c]pyrimidin-7-yl)benzonitrile] | < 10 nM | < 10 nM
19 | N#Cc1cccc(-c2nc(N)n3nc([C@@H](O)c4ccccc4)nc3c2-c2ccncn2)c1 [Example 64, (S)-3-(5-amino-2-(hydroxy(phenyl)methyl)-8-(pyrimidin-4-yl)-[1,2,4]triazolo[1,5-c]pyrimidin-7-yl)benzonitrile] | < 10 nM | < 10 nM
20 | Cc1ncoc1-c1c(-c2cccc(C#N)c2)nc(N)n2nc(Cc3ccn(C)n3)nc12 [Example 92, 3-(5-Amino-2-((1-methyl-1H-pyrazol-3-yl)methyl)-8-(4-methyloxazol-5-yl)-[1,2,4]triazolo[1,5-c]pyrimidin-7-yl)benzonitrile] | < 10 nM | < 10 nM
21 | Cc1cc(C(F)(F)F)nn1Cc1nc2c(-c3ccncn3)c(-c3cccc(C#N)c3)nc(N)n2n1 [Example 81, 3-(5-Amino-2-((5-methyl-3-(trifluoromethyl)-1H-pyrazol-1-yl)methyl)-8-(pyrimidin-4-yl)-[l*2,4]triazolo[1,5-c]pyrimidin-7-yl)benzonitrile] | < 10 nM | < 10 nM
22 | N#Cc1cccc(-c2nc(N)n3nc(Cc4c(F)cccc4CN4C(=O)CNC4=O)nc3c2-c2ccncn2)c1 [Example 75, 3-(5-Amino-2-(2-((2,5-dioxoimidazolidin-1-yl)methyl)-6-fluorobenzyl)-8-(pyrimidin-4-yl)-[1,2,4]triazolo[1,5-c]pyrimidin-7-yl)benzonitrile] | < 10 nM | < 10 nM
23 | Cn1ccc(Cc2nc3c(-c4cnco4)c(-c4cccc(C#N)c4)nc(N)n3n2)n1 [Example 93, 3-(5-Amino-2-((1-methyl-1H-pyrazol-3-yl)methyl)-8-(oxazol-5-yl)-[1,2,4]triazolo[1,5-c]pyrimidin-7-yl)benzonitrile] | < 10 nM | < 10 nM
